# Test results from publication PMC8620908, “Design, Synthesis, In Vitro Anticancer Evaluation and Molecular Modelling Studies of 3,4,5-Trimethoxyphenyl-Based Derivatives as Dual EGFR/HDAC Hybrid Inhibitors” (Pharmaceuticals, 2021).
# “And” between values parts separate entries of the source, which are not always exact repeats. Equal entries are not always repeated. “Also recorded” adds a separate entry of the source.
# Key:
# EGFR [1] = test: Western blot assay, EGFR in HepG2; type: cell-based; settings: HepG2, 4b used at its IC50 of 0.536 µM
# Procedure: (§1) Western blot assay was carried out according to the previously reported protocol.
# HepG2 cancer cell line [2] = test: Flow cytometric cell cycle analysis; type: cell-based
# HDAC2 = HDAC2 (Homo sapiens, UniProt Q92769); test: In vitro HDAC inhibition assay, HDAC2
# HDAC1 = HDAC1 (Homo sapiens, UniProt Q13547); test: In vitro HDAC inhibition assay, HDAC1
# Bcl-2 = Bcl-2 level assay in HepG2 cancer cell line; type: cell-based; settings: HepG2, versus control
# A549 = test: Antiproliferative MTT assay, A549; settings: Homo sapiens, A549, read-out: Antiproliferative Activity IC50 ± SEM, A549
# HepG2 cancer cell line [3] = test: Cell apoptosis assay, Annexin V/PI flow cytometry; type: cell-based
# Procedure: Apoptosis was determined by flow cytometry based on the Annexin-V-fluoresce in isothiocyanate (FITC) and propidium iodide (PI) staining kit (BD Pharmingen, San Diego, CA, USA). See Section 4.2.5 in Supplementary Materials.
# 4.2.5. Cell apoptosis assay
# Apoptosis was determined by flow cytometry based on the Annexin-V-fluoresce in isothiocyanate (FITC) and propidium iodide (PI) staining kit (BD Pharmingen, San Diego, USA). Apoptotic cells were defined as Annexin-V-positive. Cells were grown to approximately ∼70% confluence and exposed to different concentrations of compounds (0, 2, 4, 6 and8 μmol/L) for 24 h. Treated cells were trypsinized, washed twice with PBS and transferred into micro centrifuge tubes for centrifugation at1000 rpm for 5 min at room temperature, then resuspended in binding buffer, 5 μL of FITC and PI were added to per eppendorf tube, cells were vortexed, incubated for 15 min at room temperature in dark. Subsequently, cells were analyzed by flow cytometry (Becton Dickinson, Franklin Lakes, USA).
# 4.3. Statistical analysis
# Computerized GraphPad Prism software was used to statistically analyzed data using one-way ANOVA test followed by Tukey’s as post ANOVA for multiple comparison at P ≤.05. Data were presented as mean ± SEM. […]
# HepG2 = test: Antiproliferative MTT assay, HepG2; settings: Homo sapiens, HepG2, read-out: Antiproliferative Activity IC50 ± SEM, HepG2
# HDAC6 [4] = test: Western blot assay, HDAC6 in HepG2; type: cell-based; settings: HepG2, 4b used at its IC50 of 0.536 µM
# Procedure: as §1
# EGFR [5] = biological target: EGFR (Homo sapiens, UniProt P00533); test: EGFR-TK inhibition, cell-free assay; type: biochemical
# Bax = Bax level assay in HepG2 cancer cell line; type: cell-based
# HCT116 = test: Antiproliferative MTT assay, HCT116; settings: Homo sapiens, HCT-116, read-out: Antiproliferative Activity IC50 ± SEM, HCT116
# Caspase-3 = Caspase-3 level assay in HepG2 cancer cell line; type: cell-based, human
# HDAC4 = HDAC4 (Homo sapiens, UniProt P56524); test: In vitro HDAC inhibition assay, HDAC4
# HDAC8 = biological target: T1, HDAC8 (Homo sapiens, UniProt Q9BY41); test: In vitro HDAC inhibition assay, HDAC8
# T1 sequence (Q9BY41 1-377): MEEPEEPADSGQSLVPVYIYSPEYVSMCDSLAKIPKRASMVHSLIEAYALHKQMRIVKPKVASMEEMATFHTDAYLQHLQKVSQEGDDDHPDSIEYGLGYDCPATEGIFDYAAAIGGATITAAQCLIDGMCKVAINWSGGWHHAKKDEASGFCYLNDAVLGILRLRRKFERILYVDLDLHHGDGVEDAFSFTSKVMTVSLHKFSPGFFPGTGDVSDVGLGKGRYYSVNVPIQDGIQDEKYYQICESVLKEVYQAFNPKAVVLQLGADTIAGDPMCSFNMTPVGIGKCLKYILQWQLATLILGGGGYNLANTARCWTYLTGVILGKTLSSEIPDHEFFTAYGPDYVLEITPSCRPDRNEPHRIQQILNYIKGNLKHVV
# MCF-7 = test: Antiproliferative MTT assay, MCF-7; settings: Homo sapiens, MCF7, read-out: Antiproliferative Activity IC50 ± SEM, MCF-7
# HDAC6 [6] = biological target: T2, HDAC6 (Homo sapiens, UniProt Q9UBN7); test: In vitro HDAC inhibition assay, HDAC6
# T2 sequence (Q9UBN7 1-1215): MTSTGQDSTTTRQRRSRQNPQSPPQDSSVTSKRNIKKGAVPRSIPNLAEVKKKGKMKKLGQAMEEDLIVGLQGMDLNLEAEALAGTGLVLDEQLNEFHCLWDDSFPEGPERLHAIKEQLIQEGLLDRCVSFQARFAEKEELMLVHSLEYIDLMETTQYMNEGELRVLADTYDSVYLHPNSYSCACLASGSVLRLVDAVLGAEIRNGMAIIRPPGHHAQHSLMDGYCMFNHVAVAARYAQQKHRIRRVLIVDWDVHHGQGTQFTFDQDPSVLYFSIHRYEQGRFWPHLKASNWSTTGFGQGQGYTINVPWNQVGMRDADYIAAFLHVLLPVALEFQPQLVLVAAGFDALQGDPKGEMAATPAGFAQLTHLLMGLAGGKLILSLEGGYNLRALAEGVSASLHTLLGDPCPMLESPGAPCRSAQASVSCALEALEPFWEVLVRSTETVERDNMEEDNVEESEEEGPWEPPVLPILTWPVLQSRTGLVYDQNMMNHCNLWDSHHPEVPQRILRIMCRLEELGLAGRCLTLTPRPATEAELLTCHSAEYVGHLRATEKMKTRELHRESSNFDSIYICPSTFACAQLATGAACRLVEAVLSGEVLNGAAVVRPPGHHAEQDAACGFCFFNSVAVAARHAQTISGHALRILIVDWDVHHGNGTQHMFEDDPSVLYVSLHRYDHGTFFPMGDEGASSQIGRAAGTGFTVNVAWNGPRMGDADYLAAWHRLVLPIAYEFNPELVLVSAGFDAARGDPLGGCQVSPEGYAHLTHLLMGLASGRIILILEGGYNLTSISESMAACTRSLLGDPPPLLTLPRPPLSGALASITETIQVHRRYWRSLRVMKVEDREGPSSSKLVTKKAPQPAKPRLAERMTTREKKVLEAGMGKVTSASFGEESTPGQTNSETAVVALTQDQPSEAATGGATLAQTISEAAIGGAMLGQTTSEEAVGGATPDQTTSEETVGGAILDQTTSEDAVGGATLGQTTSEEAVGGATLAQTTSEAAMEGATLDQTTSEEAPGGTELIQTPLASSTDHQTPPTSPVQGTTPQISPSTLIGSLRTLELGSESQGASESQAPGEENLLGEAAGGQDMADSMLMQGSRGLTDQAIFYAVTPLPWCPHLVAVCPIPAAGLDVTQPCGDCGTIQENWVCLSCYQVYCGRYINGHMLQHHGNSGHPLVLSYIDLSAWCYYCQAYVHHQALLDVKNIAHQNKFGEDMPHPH
# Caspase-8 = Caspase-8 level assay in HepG2 cancer cell line; type: cell-based, human
# HDAC2, sequence (Q92769 whole entry): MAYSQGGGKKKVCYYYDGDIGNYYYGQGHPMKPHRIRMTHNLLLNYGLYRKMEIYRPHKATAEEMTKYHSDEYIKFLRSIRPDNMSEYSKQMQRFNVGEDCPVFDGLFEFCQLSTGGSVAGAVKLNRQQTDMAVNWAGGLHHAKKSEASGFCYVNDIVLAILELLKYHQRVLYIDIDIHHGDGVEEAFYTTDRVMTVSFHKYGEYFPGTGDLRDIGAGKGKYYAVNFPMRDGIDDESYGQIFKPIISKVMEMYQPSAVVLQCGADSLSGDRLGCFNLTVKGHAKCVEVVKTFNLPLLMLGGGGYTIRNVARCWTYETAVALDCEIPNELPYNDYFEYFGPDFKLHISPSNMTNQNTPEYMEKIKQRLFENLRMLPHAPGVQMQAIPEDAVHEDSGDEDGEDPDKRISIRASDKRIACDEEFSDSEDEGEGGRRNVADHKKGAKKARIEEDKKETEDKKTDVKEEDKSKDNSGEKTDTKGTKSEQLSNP
# HDAC1, sequence (Q13547 whole entry): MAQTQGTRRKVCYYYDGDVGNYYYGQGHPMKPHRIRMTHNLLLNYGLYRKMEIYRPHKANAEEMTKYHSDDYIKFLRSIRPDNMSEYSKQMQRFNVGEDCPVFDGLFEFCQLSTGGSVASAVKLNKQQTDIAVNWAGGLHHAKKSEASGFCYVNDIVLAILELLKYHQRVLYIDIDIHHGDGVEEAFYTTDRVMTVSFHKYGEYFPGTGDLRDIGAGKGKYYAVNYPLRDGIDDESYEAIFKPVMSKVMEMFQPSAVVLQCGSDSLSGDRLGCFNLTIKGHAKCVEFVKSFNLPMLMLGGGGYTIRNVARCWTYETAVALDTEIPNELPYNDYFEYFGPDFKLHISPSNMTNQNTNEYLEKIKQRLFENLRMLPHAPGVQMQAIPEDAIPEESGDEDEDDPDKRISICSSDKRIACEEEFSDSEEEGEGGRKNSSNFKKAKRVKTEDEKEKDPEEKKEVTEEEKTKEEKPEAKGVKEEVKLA
# EGFR (Homo sapiens, UniProt P00533), sequence (P00533 25-1210): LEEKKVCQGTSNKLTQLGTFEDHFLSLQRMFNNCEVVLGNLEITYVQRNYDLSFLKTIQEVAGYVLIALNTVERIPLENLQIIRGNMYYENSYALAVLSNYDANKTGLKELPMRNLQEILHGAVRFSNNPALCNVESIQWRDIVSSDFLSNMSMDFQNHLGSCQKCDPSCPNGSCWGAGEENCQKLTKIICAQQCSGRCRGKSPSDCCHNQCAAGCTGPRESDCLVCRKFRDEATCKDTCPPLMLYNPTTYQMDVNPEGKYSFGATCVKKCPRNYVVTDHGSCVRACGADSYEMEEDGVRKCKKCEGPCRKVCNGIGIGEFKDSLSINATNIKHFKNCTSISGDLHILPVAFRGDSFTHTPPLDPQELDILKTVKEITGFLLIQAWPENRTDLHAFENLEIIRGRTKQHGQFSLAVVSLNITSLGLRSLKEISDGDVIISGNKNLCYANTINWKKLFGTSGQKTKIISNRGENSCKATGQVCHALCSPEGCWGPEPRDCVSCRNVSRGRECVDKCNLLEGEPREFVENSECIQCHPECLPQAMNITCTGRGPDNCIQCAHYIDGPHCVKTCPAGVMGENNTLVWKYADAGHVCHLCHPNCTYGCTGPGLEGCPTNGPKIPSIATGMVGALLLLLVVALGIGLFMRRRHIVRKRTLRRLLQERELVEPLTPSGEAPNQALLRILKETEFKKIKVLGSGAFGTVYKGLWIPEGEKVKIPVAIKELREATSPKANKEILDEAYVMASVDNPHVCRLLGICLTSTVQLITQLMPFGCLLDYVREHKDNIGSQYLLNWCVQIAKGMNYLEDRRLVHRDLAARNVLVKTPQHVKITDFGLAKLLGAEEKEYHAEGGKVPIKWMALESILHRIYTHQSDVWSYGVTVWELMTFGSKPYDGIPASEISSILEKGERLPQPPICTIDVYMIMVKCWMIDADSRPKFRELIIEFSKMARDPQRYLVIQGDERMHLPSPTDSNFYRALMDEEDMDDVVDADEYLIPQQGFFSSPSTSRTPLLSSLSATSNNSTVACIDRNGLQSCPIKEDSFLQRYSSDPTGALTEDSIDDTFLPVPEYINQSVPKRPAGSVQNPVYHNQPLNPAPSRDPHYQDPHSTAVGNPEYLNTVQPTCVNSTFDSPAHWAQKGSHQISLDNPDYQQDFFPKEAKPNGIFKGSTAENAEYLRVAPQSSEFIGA
# HDAC4, sequence (P56524 whole entry): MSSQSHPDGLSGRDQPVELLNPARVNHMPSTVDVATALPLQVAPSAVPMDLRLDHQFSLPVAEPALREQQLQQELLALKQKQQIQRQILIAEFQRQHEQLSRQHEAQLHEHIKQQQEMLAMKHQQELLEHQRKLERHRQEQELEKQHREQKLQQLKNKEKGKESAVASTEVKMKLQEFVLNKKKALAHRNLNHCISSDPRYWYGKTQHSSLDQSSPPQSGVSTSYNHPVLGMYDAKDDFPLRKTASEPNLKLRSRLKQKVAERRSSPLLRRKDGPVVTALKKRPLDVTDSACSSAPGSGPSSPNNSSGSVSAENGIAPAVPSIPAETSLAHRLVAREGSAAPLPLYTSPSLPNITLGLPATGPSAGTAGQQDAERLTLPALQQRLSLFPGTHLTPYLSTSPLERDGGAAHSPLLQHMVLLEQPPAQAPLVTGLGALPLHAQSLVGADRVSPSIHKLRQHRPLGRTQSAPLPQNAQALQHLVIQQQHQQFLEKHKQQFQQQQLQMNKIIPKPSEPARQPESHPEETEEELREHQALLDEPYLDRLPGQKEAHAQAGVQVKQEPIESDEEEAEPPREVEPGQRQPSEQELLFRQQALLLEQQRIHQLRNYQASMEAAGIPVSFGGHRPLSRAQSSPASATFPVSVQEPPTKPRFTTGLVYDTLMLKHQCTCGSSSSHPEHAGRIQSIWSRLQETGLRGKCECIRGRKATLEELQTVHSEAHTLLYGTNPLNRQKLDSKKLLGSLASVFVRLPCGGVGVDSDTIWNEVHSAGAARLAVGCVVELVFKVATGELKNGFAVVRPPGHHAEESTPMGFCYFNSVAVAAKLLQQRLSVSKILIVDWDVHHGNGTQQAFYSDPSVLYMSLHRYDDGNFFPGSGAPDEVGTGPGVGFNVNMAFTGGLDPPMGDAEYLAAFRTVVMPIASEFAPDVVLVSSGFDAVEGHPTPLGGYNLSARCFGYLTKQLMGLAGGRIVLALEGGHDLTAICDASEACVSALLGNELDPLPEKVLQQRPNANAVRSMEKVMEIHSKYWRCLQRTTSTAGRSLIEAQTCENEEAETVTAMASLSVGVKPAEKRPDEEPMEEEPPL
smiles,measurement,setting,value
"COc1cc(/C=C/C(=O)c2ccc(OCCCCCC(=O)NO)cc2)cc(OC)c1OC [4b, (E)-N-Hydroxy-6-(4-(3-(3,4,5-Trimethoxyphenyl)Acryloyl)Phenoxy) Hexanamide]",EGFR expression (Western blot),EGFR [1],decrease
same,Comment (cell cycle arrest),HepG2 cancer cell line [2],cell cycle arrest at G1/S phase; also recorded: cell growth arrest at G1/S
same,%Pre-G1,HepG2 cancer cell line [2]; control 2.16,47.21%
same,%G2/M,HepG2 cancer cell line [2]; control 20.45,7.85%
same,%S,HepG2 cancer cell line [2]; control 36.58,39.11%
same,%G0–G1,HepG2 cancer cell line [2]; control 42.97,53.04%
same,IC50,HDAC2,168 nM
same,IC50,HDAC1,148 nM
same,Bcl-2 Fold Change,Bcl-2,0.42 fold
same,IC50,A549,797 ± 40 nM
same,Apoptosis Late,HepG2 cancer cell line [3]; control 0.12,24.67
same,percentage of cell apoptosis (late; upper right quadrant Annexin V/PI),HepG2 cancer cell line [3]; control 0.12%,24.67%
same,Apoptosis Early,HepG2 cancer cell line [3]; control 0.34,9.33
same,Necrosis,HepG2 cancer cell line [3]; control 1.7,13.21
same,Apoptosis Total,HepG2 cancer cell line [3]; control 2.16,47.21
same,IC50,HepG2,536 ± 30 nM
same,HDAC6 expression (Western blot),HDAC6 [4],decrease
same,IC50,EGFR [5],63 ± 2 nM
same,Bax Fold Change,"Bax; HepG2, versus control",3.75 fold
same,Bax Conc,Bax; HepG2 cancer cell line,398.9 ± 14.3 pg/mL
same,IC50,HCT116,1210 ± 70 nM
same,Caspase-3 Conc,Caspase-3,483.2 pg/mL and 483.2 ± 14.72 pg/mL
same,IC50,HDAC4,5850 nM
same,IC50,HDAC8,2260 nM
same,IC50,MCF-7,621 ± 30 nM
same,IC50,HDAC6 [6],60 nM
same,Caspase-8 Fold Change,"Caspase-8; HepG2, versus control",3.15 fold
same,Caspase-8 Conc,Caspase-8; HepG2 cancer cell line,1.078 ng/mL and 1.078 ± 0.046 ng/mL
